# System: 73 M. tuberculosis strains (41 fully susceptible, 32 MDR)
# Experiment: microbe, parasite or virus in culture
# Type: cell-based
smiles,measurement,setting,value
"COc1nc2ccc(Br)cc2cc1[C@@H](c1ccccc1)[C@@](O)(CCN(C)C)c1cccc2ccccc12 [Compound 12, (αS,βR)-6-bromo-α-[2-(dimethylamino)ethyl]-2-methoxy-α-1-naphthalenyl-β-phenyl-3-quinolineethanol]",difference in MIC between fully susceptible and MDR M. tuberculosis strains,,No difference in MIC
same,MIC,"Mycobacterium tuberculosis, 504 h, the majority of the 73 strains, agar plates, 36° C., 3 weeks",0.032 µg/mL
same,concentrations at which no growth was seen,"all the tested strains (73), agar plates, 36° C., 3 weeks",higher than 0.064 mg/L
